Reference: patent publication USRE38117E1, “Trioxane dimer compound having antiproliferative and antitumor activities” (Hauser, Inc., priority 1995, dated 2003)

Key:
Assay type in all cases: cell-based
MDA-N = test: NCI 60 cell line screen (SRB), Breast Cancer
K-562 = test: NCI 60 cell line screen (SRB), Leukemia; conditions: K-562 (Leukemia)
MCF7 = test: NCI 60 cell line screen (SRB), Breast Cancer
HOP-62 = test: NCI 60 cell line screen (SRB), Non-Small Cell Lung Cancer; conditions: HOP-62 (Non-Small Cell Lung Cancer)
786-0 = test: NCI 60 cell line screen (SRB), Renal Cancer; conditions: 786-0 (Renal Cancer)
MCF7/ADR-RES = test: NCI 60 cell line screen (SRB), Breast Cancer
TK-10 = test: NCI 60 cell line screen (SRB), Renal Cancer; conditions: TK-10 (Renal Cancer)
KM12 = test: NCI 60 cell line screen (SRB), Colon Cancer
HCT-116 = test: NCI 60 cell line screen (SRB), Colon Cancer; conditions: HCT-116 (Colon Cancer)
MDA-MB-435 = test: NCI 60 cell line screen (SRB), Breast Cancer; conditions: MDA-MB-435 (Breast Cancer)
SR = test: NCI 60 cell line screen (SRB), Leukemia
NCI-H522 = test: NCI 60 cell line screen (SRB), Non-Small Cell Lung Cancer
UO-31 = test: NCI 60 cell line screen (SRB), Renal Cancer; conditions: UO-31 (Renal Cancer)
M14 = test: NCI 60 cell line screen (SRB), Melanoma
PC-3 = test: NCI 60 cell line screen (SRB), Prostate Cancer; conditions: PC-3 (Prostate Cancer)
T-47D = test: NCI 60 cell line screen (SRB), Breast Cancer; conditions: T-47D (Breast Cancer)
CAKI-1 = test: NCI 60 cell line screen (SRB), Renal Cancer; conditions: CAKI-1 (Renal Cancer)
MDA-MB231/ATCC = test: NCI 60 cell line screen (SRB), Breast Cancer
OVCAR-4 = test: NCI 60 cell line screen (SRB), Ovarian Cancer; conditions: OVCAR-4 (Ovarian Cancer)
A498 = test: NCI 60 cell line screen (SRB), Renal Cancer
LOX IMVI = test: NCI 60 cell line screen (SRB), Melanoma
RXF 393 = test: NCI 60 cell line screen (SRB), Renal Cancer; conditions: RXF 393 (Renal Cancer)
HCC-2998 = test: NCI 60 cell line screen (SRB), Colon Cancer; conditions: HCC-2998 (Colon Cancer)
HCT-15 = test: NCI 60 cell line screen (SRB), Colon Cancer; conditions: HCT-15 (Colon Cancer)
CCRF-CEM = test: NCI 60 cell line screen (SRB), Leukemia
UACC-62 = test: NCI 60 cell line screen (SRB), Melanoma; conditions: UACC-62 (Melanoma)
OVCAR-3 = test: NCI 60 cell line screen (SRB), Ovarian Cancer; conditions: OVCAR-3 (Ovarian Cancer)
HOP-92 = test: NCI 60 cell line screen (SRB), Non-Small Cell Lung Cancer; conditions: HOP-92 (Non-Small Cell Lung Cancer)
SK-MEL-28 = test: NCI 60 cell line screen (SRB), Melanoma; conditions: SK-MEL-28 (Melanoma)
A549/ATCC = test: NCI 60 cell line screen (SRB), Non-Small Cell Lung Cancer
SF-268 = test: NCI 60 cell line screen (SRB), CNS Cancer; conditions: SF-268 (CNS Cancer)
EKVX = test: NCI 60 cell line screen (SRB), Non-Small Cell Lung Cancer
SK-MEL-5 = test: NCI 60 cell line screen (SRB), Melanoma; conditions: SK-MEL-5 (Melanoma)

## CC(=O)O[C@H]1C(=O)[C@@]2(C)[C@H]([C@H](OC(=O)c3ccccc3)[C@]3(O)C[C@H](OC(=O)[C@H](O)[C@@H](NC(=O)c4ccccc4)c4ccccc4)C(C)=C1C3(C)C)[C@]1(OC(C)=O)CO[C@@H]1C[C@@H]2O [Paclitaxel, paclitaxel, reference compound]
MDA-N
  Log10GI50: <−13.00 M
K-562
  Log10GI50: −10.83 M
  Log10LC50: >−4.00 M
  Log10TGI: >−4.00 M
MCF7
  Log10GI50: −11.69 M
  Log10LC50: >−4.00 M
HOP-62
  Log10GI50: −9.67 M
  Log10LC50: −4.10 M
  Log10TGI: −4.80 M
786-0
  Log10GI50: −8.01 M
  Log10LC50: >−4.00 M
  Log10TGI: >−4.00 M
MCF7/ADR-RES
  Log10GI50: −8.48 M
  Log10LC50: >−4.00 M
  Log10TGI: >−4.00 M
TK-10
  Log10GI50: −7.89 M
KM12
  Log10GI50: −11.43 M
  Log10LC50: >−4.00 M
  Log10TGI: −4.36 M
HCT-116
  Log10GI50: <−13.00 M
  Log10LC50: >−4.00 M
  Log10TGI: −4.82 M
MDA-MB-435
  Log10GI50: <−13.00 M
SR
  Log10LC50: >−4.00 M
  Log10TGI: >−4.00 M
NCI-H522
  Log10GI50: >−13.00 M
  Log10LC50: >−4.00 M
  Log10TGI: −11.20 M
UO-31
  Log10GI50: −6.09 M
M14
  Log10GI50: −11.73 M
  Log10LC50: −4.13 M
  Log10TGI: −4.62 M
PC-3
  Log10GI50: −10.85 M
  Log10LC50: >−4.00 M
  Log10TGI: >−4.00 M
T-47D
  Log10GI50: −9.81 M
  Log10LC50: >−4.00 M
CAKI-1
  Log10LC50: >−4.00 M
MDA-MB231/ATCC
  Log10GI50: −8.54 M
  Log10TGI: −4.84 M
OVCAR-4
  Log10GI50: −5.00 M
  Log10LC50: >−4.00 M
  Log10TGI: −4.19 M
A498
  Log10GI50: −7.14 M
  Log10LC50: −4.13 M
LOX IMVI
  Log10GI50: −11.80 M
  Log10LC50: >−4.15 M
  Log10TGI: −4.65 M
RXF 393
  Log10GI50: −8.32 M
  Log10LC50: >−4.00 M
  Log10TGI: >−4.00 M
HCC-2998
  Log10GI50: −12.34 M
  Log10LC50: −4.26 M
  Log10TGI: −4.77 M
HCT-15
  Log10GI50: −6.37 M
  Log10LC50: >−4.00 M
  Log10TGI: >−4.00 M
CCRF-CEM
  Log10GI50: −11.61 M
  Log10LC50: >−4.00 M
  Log10TGI: >−4.00 M
UACC-62
  Log10GI50: −10.46 M
  Log10LC50: −4.19 M
  Log10TGI: −4.71 M
OVCAR-3
  Log10GI50: −10.40 M
  Log10LC50: >−4.00 M
  Log10TGI: −4.55 M

## COC1OC2(C)CCC3CCCC(CCOC(=O)c4cccc(C(=O)OCCC5CCCC6CCC7(C)OOC56C(OC)O7)c4)C31OO2 (stereo not drawn) [Compound 10, Trioxane Bis-ester Dimer]
MDA-N
  Log10GI50: −5.97 M
  Log10LC50: >−4.30 M
  Log10TGI: >−4.30 M
K-562
  Log10GI50: −6.79 M
  Log10LC50: >−4.30 M
  Log10TGI: −5.35 M
HOP-92
  Log10GI50: −6.01 M
  Log10LC50: >−4.30 M
  Log10TGI: −4.64 M
SK-MEL-28
  Log10GI50: −4.94 M
  Log10LC50: >−4.30 M
  Log10TGI: >−4.30 M
MCF7
  Log10GI50: −5.92 M
  Log10LC50: >−4.30 M
  Log10TGI: >−4.30 M
HOP-62
  Log10GI50: −5.11 M
  Log10LC50: >−4.30 M
  Log10TGI: >−4.30 M
A549/ATCC
  Log10GI50: −5.89 M
  Log10LC50: >−4.30 M
  Log10TGI: >−4.30 M
786-0
  Log10GI50: −5.57 M
  Log10LC50: >−4.30 M
  Log10TGI: >−4.30 M
MCF7/ADR-RES
  Log10GI50: −5.36 M
  Log10LC50: >−4.30 M
  Log10TGI: >−4.0 M
TK-10
  Log10GI50: −5.39 M
  Log10LC50: >−4.30 M
  Log10TGI: >−4.30 M
KM12
  Log10GI50: −5.97 M
  Log10LC50: >−4.30 M
  Log10TGI: >−4.30 M
HCT-116
  Log10GI50: −6.43 M
  Log10LC50: >−4.30 M
  Log10TGI: >−4.30 M
MDA-MB-435
  Log10GI50: −5.93 M
  Log10LC50: >−4.30 M
  Log10TGI: >−4.30 M
SF-268
  Log10GI50: −5.36 M
  Log10LC50: >−4.30 M
  Log10TGI: >−4.30 M
SR
  Log10GI50: <−8.30 M
  Log10LC50: >−4.30 M
  Log10TGI: −7.49 M
NCI-H522
  Log10GI50: −6.13 M
  Log10LC50: >−4.30 M
  Log10TGI: >−4.30 M
UO-31
  Log10GI50: −5.96 M
  Log10LC50: >−4.30 M
  Log10TGI: >−4.30 M
M14
  Log10GI50: −5.08 M
  Log10LC50: >−4.30 M
  Log10TGI: >−4.30 M
PC-3
  Log10GI50: −7.09 M
  Log10LC50: >−4.30 M
  Log10TGI: >−4.30 M
T-47D
  Log10GI50: −6.76 M
  Log10LC50: >−4.30 M
  Log10TGI: >−4.30 M
CAKI-1
  Log10GI50: −5.66 M
  Log10LC50: >−4.30 M
  Log10TGI: >−4.30 M
MDA-MB231/ATCC
  Log10GI50: −5.27 M
  Log10LC50: >−4.30 M
  Log10TGI: >−4.30 M
OVCAR-4
  Log10GI50: >−4.0 M
  Log10LC50: >−4.30 M
  Log10TGI: >−4.30 M
EKVX
  Log10GI50: −5.31 M
  Log10LC50: >−4.30 M
  Log10TGI: >−4.30 M
A498
  Log10GI50: >−4.30 M
  Log10LC50: >−4.30 M
  Log10TGI: >−4.30 M
LOX IMVI
  Log10GI50: −6.27 M
  Log10LC50: >−4.30 M
  Log10TGI: >−4.30 M
RXF 393
  Log10GI50: >−4.30 M
  Log10LC50: >−4.30 M
  Log10TGI: >−4.30 M
HCC-2998
  Log10GI50: −5.32 M
  Log10LC50: >−4.30 M
  Log10TGI: >−4.30 M
SK-MEL-5
  Log10GI50: −5.57 M
  Log10LC50: >−4.30 M
  Log10TGI: >−4.30 M
HCT-15
  Log10GI50: −6.14 M
  Log10LC50: >−4.30 M
  Log10TGI: >−4.30 M
CCRF-CEM
  Log10GI50: −7.15 M
  Log10LC50: >−4.30 M
  Log10TGI: −5.70 M
UACC-62
  Log10GI50: −5.68 M
  Log10LC50: >−4.30 M
  Log10TGI: >−4.30 M
OVCAR-3
  Log10GI50: −5.53 M
  Log10LC50: >−4.30 M
  Log10TGI: >−4.30 M
